{
  "source": "the supplement of paper PMC10307832",
  "test_in_all_cases": "relative viability (nuclei count vs DMSO), 5 days (fraction); higher = more cells survive",
  "key": {"AZD6482 + Olaparib": {"compound": "Cc1cc([C@@H](C)Nc2ccccc2C(=O)O)c2nc(N3CCOCC3)cc(=O)n2c1 [AZD6482] + O=C(c1cc(Cc2n[nH]c(=O)c3ccccc23)ccc1F)N1CCN(C(=O)C2CC2)CC1 [Olaparib] (partner 8 µM)", "procedure,_shortened": "(§1)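 Relative viability divides the nuclei count in treated wells by that in vehicle wells. Lung cancer cell lines were seeded in 1536-well plates, dosed by pin tool the next day, and fixed and stained after 5 days in one step with final 0.05% Triton X-100, 1% formaldehyde and 1 ug/ml Hoechst. Dosing was a single drug or a fixed anchor-drug dose plus five library-drug doses (not always all listed) in √10 steps, and values are medians of duplicate plates imaged at 4×.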"}, "AZD6482 + Dasatinib": {"compound": "Cc1cc([C@@H](C)Nc2ccccc2C(=O)O)c2nc(N3CCOCC3)cc(=O)n2c1 [AZD6482] + Cc1nc(Nc2ncc(C(=O)Nc3c(C)cccc3Cl)s2)cc(N2CCN(CCO)CC2)n1 [Dasatinib] (partner 0.075 µM)", "procedure,_shortened": "as §1"}, "[1]": {"compound": "COc1cc2nc(N3CCCN(C)CC3)nc(NC3CCN(Cc4ccccc4)CC3)c2cc1OC + CS(=O)(=O)CCNCc1ccc(-c2ccc3ncnc(Nc4ccc(OCc5cccc(F)c5)c(Cl)c4)c3c2)o1 [Lapatinib] (partner 2 µM)", "procedure,_shortened": "as §1"}, "[2]": {"compound": "COc1cc2nc(N3CCCN(C)CC3)nc(NC3CCN(Cc4ccccc4)CC3)c2cc1OC + COc1cc2c(Oc3ccc(NC(=O)C4(C(=O)Nc5ccc(F)cc5)CC4)cc3F)ccnc2cc1OCCCN1CCOCC1 [Foretinib] (partner 0.25 µM)", "procedure,_shortened": "as §1"}},
  "data": [
    {"cell line": "UMC-11", "values": [
      {"measurement": "relative viability", "setting": "AZD6482 + Olaparib; first compound 0.08 µM", "result": 0.738},
      {"measurement": "relative viability", "setting": "AZD6482 + Olaparib; first compound 0.253 µM", "result": 0.358},
      {"measurement": "relative viability", "setting": "AZD6482 + Olaparib; first compound 0.8 µM", "result": 0.357},
      {"measurement": "relative viability", "setting": "AZD6482 + Olaparib; first compound 2.53 µM", "result": 0.345},
      {"measurement": "relative viability", "setting": "AZD6482 + Olaparib; first compound 8 µM", "result": 0.338},
      {"measurement": "relative viability", "setting": "AZD6482 + Dasatinib; first compound 0.08 µM", "result": 0.457},
      {"measurement": "relative viability", "setting": "AZD6482 + Dasatinib; first compound 0.253 µM", "result": 0.48},
      {"measurement": "relative viability", "setting": "AZD6482 + Dasatinib; first compound 0.8 µM", "result": 0.472},
      {"measurement": "relative viability", "setting": "AZD6482 + Dasatinib; first compound 2.53 µM", "result": 0.416},
      {"measurement": "relative viability", "setting": "AZD6482 + Dasatinib; first compound 8 µM", "result": 0.559},
      {"measurement": "relative viability", "setting": "[1]; first compound 0.2 µM", "result": 0.93},
      {"measurement": "relative viability", "setting": "[1]; first compound 0.6325 µM", "result": 1.12},
      {"measurement": "relative viability", "setting": "[1]; first compound 2 µM", "result": 1.03},
      {"measurement": "relative viability", "setting": "[1]; first compound 6.325 µM", "result": 0.656},
      {"measurement": "relative viability", "setting": "[2]; first compound 0.2 µM", "result": 0.943},
      {"measurement": "relative viability", "setting": "[2]; first compound 0.6325 µM", "result": 1.05},
      {"measurement": "relative viability", "setting": "[2]; first compound 2 µM", "result": 1.15},
      {"measurement": "relative viability", "setting": "[2]; first compound 6.325 µM", "result": 0.826}
    ]}
  ]
}
